Where a name gives a salt, the structure may show the parent alone.
Legend:
rHDAC1 = target: T1, rHDAC1 (Homo sapiens, UniProt Q13547); experiment: rHDAC1 enzymatic assay (recombinant FLAG-HDAC1); assay type: biochemical; conditions: FLAG-HDAC1 from HEK293; 6 μM Ac-NH-GGK(Ac)-AMC, 3 h at 30° C.; read-out: rHDAC1 [pIC50] (converted)
T1 construct: FLAG; made in house
Excerpt: (§1) Human HDAC1 and HDAC6 fused with the FLAG epitope are stably expressed in HEK293 cells while human HDAC3 and HDAC8 fused with the FLAG epitope are overexpressed in baculo-virus infected insect (Sf21) cells. To ensure stability of FLAG-HDAC3 the SMRT protein is co-expressed in the corresponding insect cells. […] FLAG-HDAC3 and FLAG-HDAC8 are also purified by M2-agarose affinity chromatography after mass cultivation of the insect cells and cell lysis.
(§2) The HDAC enzyme activity assay is done as described by Wegener et al. (Chem. & Biol. 10, 61-68, 2003). Briefly 40 μl of a 1:100 dilution (=0.4 μl) nuclear HeLa extract (mixture of class I and II HDACs), 29 μl enzyme buffer (15 mM Tris HCl pH 8.1, 0.25 mM EDTA, 250 mM NaCl, 10% v:v glycerol) and 1 μl test compound are added to a well of a 96 well microtiter plate and reaction started by addition of 3 μl substrate (Ac-NH-GGK(Ac)-AMC; final concentration 25 μM and final volume […]). […] After incubation at room temperature for further 40 min, fluorescence is measured using a Wallac Victor 1420 multilabel counter (Ex 355 nm, Em 460 nm) for quantification of AMC (7-amino-4-methylcoumarin) generated by trypsine cleavage of the deacetylated peptide. […] The corresponding pIC50 values of the compounds for HDAC inhibitory activity are determined from the concentration-effect curves by means of non-linear regression (Graphpad Prism software).
(§3) The HDAC1, HDAC3 and HDAC6 enzymatic assays are done with slight modifications with recombinant FLAG-HDAC1 and FLAG-HDAC6 proteins isolated from HEK293 cell lysates or recombinant FLAG-HDAC3 isolated from insect cells, respectively. The HDAC8 enzymatic assay using recombinant FLAG-HDAC8 isolated from insect cells is done with a different substrate. About 4.5 ng/well FLAG-HDAC1 and 3.1 ng/well FLAG-HDAC6 (dependent on batches and specific activity) are incubated with 6 μM or 10 μM Ac-NH-GGK(Ac)-AMC substrate, respectively, for 3 h at 30° C. About 1.7 ng/well FLAG-HDAC3 is incubated with 6 μM Ac-NH-GGK(Ac)-AMC substrate for 2 h at 30° C., while approximately 130 ng/well FLAG-HDAC8 is incubated with 50 μM Ac-RHK(Ac)K(Ac)-AMC substrate for 3 h at 30° C. Termination of the reaction and all further steps are done as described for HeLa cell nuclear extracts as a source for HDAC enzymatic activity. The corresponding pIC50 values of the compounds for HDAC1, HDAC3, HDAC6 and HDAC8 inhibitory activity are determined from the concentration-effect curves by means of non-linear regression.

rHDAC3 = target: T2, rHDAC3 (Homo sapiens, UniProt O15379); experiment: rHDAC3 enzymatic assay (recombinant FLAG-HDAC3); assay type: biochemical; conditions: FLAG-HDAC3 from insect cells; 6 μM Ac-NH-GGK(Ac)-AMC, 2 h at 30° C.; read-out: rHDAC3 [pIC50] (converted)
T2 construct: FLAG; made in house; host or cells: baculovirus-infected Sf21 insect cells
Excerpt: as §1, §2, §3

rHDAC8 = target: T3, rHDAC8 (Homo sapiens, UniProt Q9BY41); experiment: rHDAC8 enzymatic assay (recombinant FLAG-HDAC8); assay type: biochemical; conditions: FLAG-HDAC8 from insect cells; 50 μM Ac-RHK(Ac)K(Ac)-AMC, 3 h at 30° C.; read-out: rHDAC8 [pIC50] (converted)
T3 construct: FLAG; made in house; host or cells: baculovirus-infected Sf21 insect cells
T3 sequence (Q9BY41 1-377): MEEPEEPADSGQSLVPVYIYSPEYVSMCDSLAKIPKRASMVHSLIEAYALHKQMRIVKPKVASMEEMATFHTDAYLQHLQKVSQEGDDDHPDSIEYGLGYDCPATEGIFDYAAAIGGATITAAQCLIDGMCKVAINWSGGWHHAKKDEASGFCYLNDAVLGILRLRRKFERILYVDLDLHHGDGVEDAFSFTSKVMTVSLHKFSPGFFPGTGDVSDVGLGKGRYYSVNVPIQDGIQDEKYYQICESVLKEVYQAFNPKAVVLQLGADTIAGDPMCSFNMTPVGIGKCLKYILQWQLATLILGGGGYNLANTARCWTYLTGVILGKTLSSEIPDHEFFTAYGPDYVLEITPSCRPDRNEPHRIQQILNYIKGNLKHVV
Excerpt: as §1, §2, §3

[1] = Cellular cytotoxicity assay (Alamar Blue/Resazurin), A549; assay type: cell-based; conditions: human, A549 cells; A549, 72 hours incubation, Resazurin; read-out: A549 Cytotoxicity [pIC50] (converted)
Protocol: (§4) The anti-proliferative activity of the compounds as described herein, is evaluated with various solid and hematological cancer cell lines using the Alamar Blue (Resazurin) cell viability assay (O'Brien et al, Eur J Biochem 267, 5421-5426, 2000). Resazurin is reduced to the fluorescent resorufin by cellular dehydrogenase activity, correlating with viable, proliferating cells. Test compounds are dissolved as 20 mM solutions in dimethylsulfoxide (DMSO) and subsequently diluted in semi-logarithmic steps. The cancer cell lines are seeded into 96 well flat bottom plates at respective cell densities in a volume of 200 μl per well to allow continuous proliferation during the experiment. 24 hours after seeding 1 μl each of the compound dilutions is added into each well of the 96 well plate. Wells containing untreated control cells are filled with 200 μl DMEM medium containing 0.5% v:v DMSO. The cells are then incubated with the substances for 72 hours at 37° C. in a humidified atmosphere containing 5% carbon dioxide. To determine the viability of the cells, 20 μl of a Resazurin solution (Sigma; 90 mg/l) are added. After 4 hours incubation at 37° C. the fluorescence is measured at an extinction of 544 nm and an emission of 590 nm. For the calculation of the cell viability the emission value from untreated cells is set as 100% viability and the emission rates of treated cells are set in relation to the values of untreated cells. Viabilities are expressed as % values. The corresponding pIC50 values of the compounds for cytotoxic activity are determined from the concentration-effect curves by means of non-linear regression.

[2] = Cellular cytotoxicity assay (Alamar Blue/Resazurin), HeLa; assay type: cell-based; conditions: human, HeLa cells, 72 hours incubation, Resazurin, read-out: HeLa Cytotoxicity [pIC50] (converted)
Protocol: as §4

T1 sequence (Q13547 whole entry): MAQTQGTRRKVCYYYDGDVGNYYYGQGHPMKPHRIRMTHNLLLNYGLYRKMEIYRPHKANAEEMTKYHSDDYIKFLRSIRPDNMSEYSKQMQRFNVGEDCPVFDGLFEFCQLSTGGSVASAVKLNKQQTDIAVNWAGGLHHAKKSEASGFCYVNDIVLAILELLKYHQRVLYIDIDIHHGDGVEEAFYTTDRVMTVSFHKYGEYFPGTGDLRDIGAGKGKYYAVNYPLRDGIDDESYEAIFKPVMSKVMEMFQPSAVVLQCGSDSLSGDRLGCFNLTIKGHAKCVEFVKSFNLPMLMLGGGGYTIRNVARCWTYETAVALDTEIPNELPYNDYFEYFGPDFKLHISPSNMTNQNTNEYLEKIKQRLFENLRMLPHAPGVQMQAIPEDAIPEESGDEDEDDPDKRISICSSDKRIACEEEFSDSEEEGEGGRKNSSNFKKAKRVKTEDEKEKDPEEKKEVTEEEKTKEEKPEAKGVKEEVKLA
T2 sequence (O15379 whole entry): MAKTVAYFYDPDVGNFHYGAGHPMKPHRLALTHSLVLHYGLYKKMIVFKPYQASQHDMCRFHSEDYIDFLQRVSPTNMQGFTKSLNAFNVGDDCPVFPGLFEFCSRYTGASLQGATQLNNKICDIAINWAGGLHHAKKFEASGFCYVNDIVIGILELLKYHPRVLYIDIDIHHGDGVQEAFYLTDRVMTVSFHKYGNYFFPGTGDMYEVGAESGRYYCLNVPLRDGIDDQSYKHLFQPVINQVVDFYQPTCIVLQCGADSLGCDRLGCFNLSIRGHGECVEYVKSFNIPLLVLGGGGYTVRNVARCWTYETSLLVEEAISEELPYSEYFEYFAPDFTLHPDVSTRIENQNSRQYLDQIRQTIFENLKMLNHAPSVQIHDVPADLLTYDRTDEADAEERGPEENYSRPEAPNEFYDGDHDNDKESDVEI
T2 sequence (Q9Y618 whole entry partner): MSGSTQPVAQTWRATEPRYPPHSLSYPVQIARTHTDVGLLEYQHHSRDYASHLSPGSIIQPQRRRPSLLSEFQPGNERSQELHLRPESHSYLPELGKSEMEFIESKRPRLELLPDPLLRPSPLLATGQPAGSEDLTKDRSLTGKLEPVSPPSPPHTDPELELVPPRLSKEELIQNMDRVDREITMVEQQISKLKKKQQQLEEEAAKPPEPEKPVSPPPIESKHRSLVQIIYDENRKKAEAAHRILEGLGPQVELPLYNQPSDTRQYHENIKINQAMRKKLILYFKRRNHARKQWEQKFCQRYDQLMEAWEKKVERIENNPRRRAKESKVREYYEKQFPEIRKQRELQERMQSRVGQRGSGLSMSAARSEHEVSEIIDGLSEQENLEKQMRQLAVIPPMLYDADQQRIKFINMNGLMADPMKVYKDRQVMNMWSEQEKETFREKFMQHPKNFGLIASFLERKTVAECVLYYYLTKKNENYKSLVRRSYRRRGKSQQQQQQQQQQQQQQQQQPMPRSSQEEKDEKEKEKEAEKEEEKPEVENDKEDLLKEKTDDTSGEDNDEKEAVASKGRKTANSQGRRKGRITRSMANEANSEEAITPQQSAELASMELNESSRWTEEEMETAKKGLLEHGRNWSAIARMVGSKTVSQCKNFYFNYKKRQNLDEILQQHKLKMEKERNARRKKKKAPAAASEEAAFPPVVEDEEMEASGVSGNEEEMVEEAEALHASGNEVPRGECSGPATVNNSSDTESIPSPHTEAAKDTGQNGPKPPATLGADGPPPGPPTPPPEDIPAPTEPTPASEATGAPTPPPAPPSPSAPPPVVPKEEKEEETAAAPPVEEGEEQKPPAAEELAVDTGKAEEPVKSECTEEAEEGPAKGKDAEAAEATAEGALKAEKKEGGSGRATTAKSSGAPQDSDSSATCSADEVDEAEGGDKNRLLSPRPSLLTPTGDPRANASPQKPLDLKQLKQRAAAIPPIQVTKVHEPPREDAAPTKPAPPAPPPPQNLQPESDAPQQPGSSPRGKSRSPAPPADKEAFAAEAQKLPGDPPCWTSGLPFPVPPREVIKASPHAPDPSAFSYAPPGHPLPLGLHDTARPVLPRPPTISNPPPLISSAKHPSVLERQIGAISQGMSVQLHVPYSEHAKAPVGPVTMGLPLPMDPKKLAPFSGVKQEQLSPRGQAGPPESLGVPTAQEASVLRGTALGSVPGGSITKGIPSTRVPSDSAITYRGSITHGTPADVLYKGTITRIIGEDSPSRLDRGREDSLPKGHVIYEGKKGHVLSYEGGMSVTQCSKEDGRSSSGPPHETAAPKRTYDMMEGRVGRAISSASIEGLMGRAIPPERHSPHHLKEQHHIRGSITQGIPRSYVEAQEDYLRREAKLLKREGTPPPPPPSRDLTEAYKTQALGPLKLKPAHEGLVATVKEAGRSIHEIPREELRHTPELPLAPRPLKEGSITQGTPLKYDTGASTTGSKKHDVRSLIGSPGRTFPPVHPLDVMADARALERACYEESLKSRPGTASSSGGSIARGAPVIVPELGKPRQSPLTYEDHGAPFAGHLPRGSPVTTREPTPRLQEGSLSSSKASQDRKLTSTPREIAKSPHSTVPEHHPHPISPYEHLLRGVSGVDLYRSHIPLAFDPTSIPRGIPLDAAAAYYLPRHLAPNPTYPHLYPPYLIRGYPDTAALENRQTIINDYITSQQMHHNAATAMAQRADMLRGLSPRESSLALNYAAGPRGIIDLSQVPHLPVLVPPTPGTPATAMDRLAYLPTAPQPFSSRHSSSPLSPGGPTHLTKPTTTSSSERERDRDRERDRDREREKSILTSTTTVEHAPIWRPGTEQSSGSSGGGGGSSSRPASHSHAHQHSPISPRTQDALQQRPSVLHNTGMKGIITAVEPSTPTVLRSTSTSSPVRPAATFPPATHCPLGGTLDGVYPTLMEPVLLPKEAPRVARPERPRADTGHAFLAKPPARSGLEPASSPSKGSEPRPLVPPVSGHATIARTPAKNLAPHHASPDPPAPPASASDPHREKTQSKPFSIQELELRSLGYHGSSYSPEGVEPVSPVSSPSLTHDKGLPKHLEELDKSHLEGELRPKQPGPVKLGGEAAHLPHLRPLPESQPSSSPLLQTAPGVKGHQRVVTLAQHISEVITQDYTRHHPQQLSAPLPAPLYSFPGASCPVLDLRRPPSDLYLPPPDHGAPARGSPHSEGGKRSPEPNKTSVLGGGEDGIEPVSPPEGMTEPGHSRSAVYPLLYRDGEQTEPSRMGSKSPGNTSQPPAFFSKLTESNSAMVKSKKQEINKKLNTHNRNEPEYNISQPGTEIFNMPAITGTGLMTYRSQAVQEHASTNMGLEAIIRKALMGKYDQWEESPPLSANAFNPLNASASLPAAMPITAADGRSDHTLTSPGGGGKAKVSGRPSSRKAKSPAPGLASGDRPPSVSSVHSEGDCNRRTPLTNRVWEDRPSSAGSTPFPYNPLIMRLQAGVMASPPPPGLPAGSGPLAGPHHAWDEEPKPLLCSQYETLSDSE

Row | Structure (SMILES) | IC50 (rHDAC1) [µM] | IC50 (rHDAC3) [µM] | IC50 (rHDAC8) [nM] | IC50 at 72 h [1] [µM] | IC50 at 72 h [2] [µM]
1 | O=C(NO)c1ccc2c(c1)CCN(C(=O)Cc1c[nH]c3ccccc13)C2 [Example 1, N-Hydroxy-2-(indol-3-ylacetyl)-1,2,3,4-tetrahydroisoquinoline-6-carboxamide hydrochloride] | 0.1 to 10 | 1 to 10 | 1000 to 10000 | 1 to 100 | 1 to 100
2 | CNC(=O)N1CCc2cc(C(=O)NO)ccc2C1 [Example 4, N6-Hydroxy-N2-methyl-3,4-dihydroisoquinoline-2,6(1H)-dicarboxamide] | 0.1 to 10 | 10 to 100 | 1000 to 10000 | > 100 | > 100
3 | COc1ccc2[nH]c(C(=O)N3CCc4cc(C(=O)NO)ccc4C3)cc2c1 [Example 15, N-Hydroxy-2-[(5-methoxy-1H-indol-2-yl)carbonyl]-1,2,3,4-tetrahydroisoquinoline-6-carboxamide] | 0.1 to 10 | 1 to 10 | 1000 to 10000 | 1 to 100 | 1 to 100
4 | COCCOCC(=O)N1CCc2cc(C(=O)NO)ccc2C1 [Example 11, N-Hydroxy-2-[(2-methoxyethoxy)acetyl]-1,2,3,4-tetrahydroisoquinoline-6-carboxamide] | 10 to 100 | 10 to 100 | 1000 to 10000 | > 100 | > 100
5 | O=C(NO)c1ccc2c(c1)CCN(C(=O)Cc1cccnc1)C2 [Example 8, N-Hydroxy-2-(pyridin-3-ylacetyl)-1,2,3,4-tetrahydroisoquinoline-6-carboxamide hydrochloride] | 10 to 100 | 10 to 100 | 1000 to 10000 | > 100 | > 100
6 | Cc1nccn1CC(=O)N1CCc2cc(C(=O)NO)ccc2C1 [Example 10, N-Hydroxy-2-[(2-methyl-1H-imidazol-1-yl)acetyl]-1,2,3,4-tetrahydroisoquinoline-6-carboxamide hydrochloride] | 10 to 100 | 10 to 100 | 1000 to 10000 | > 100 | > 100
7 | O=C(NO)c1ccc2c(c1)CN(C(=O)Cc1ccccn1)CC2 [Example 21, N-Hydroxy-2-(pyridin-2-ylacetyl)-1,2,3,4-tetrahydroisoquinoline-7-carboxamide hydrochloride] | 0.1 to 10 | 10 to 100 | 10 to 1000 | > 100 | 1 to 100
8 | O=C(NO)c1ccc2c(c1)CN(C(=O)NCCc1ccccc1)CC2 [Example 22, N7-Hydroxy-N2-(2-phenylethyl)-3,4-dihydroisoquinoline-2,7(1H)-dicarboxamide] | 0.1 to 10 | 1 to 10 | 10 to 1000 | 1 to 100 | 1 to 100
9 | COCCCNC(=O)N1CCc2cc(C(=O)NO)ccc2C1 [Example 5, N6-Hydroxy-N2-(3-methoxypropyl)-3,4-dihydroisoquinoline-2,6(1H)-dicarboxamide] | 0.1 to 10 | 10 to 100 | 1000 to 10000 | > 100 | > 100

— patent publication US8575193B2, “N-substituted tetrahydroisoquinoline/isoindoline hydroxamic acid compounds” (4SC AG, priority 2008, dated 2013)
